In PMC5952258, “Identification of a Mycothiol-Dependent Nitroreductase from Mycobacterium tuberculosis” (ACS Infectious Diseases, 2018) one finds melting temperature shift data, which are given here for 1 compound.

The test has as its target Rv2466c (rRv2466c; Mrx-2) (Mycobacterium tuberculosis, UniProt O53193).

Rv2466c (rRv2466c; Mrx-2), sequence (O53193 whole entry): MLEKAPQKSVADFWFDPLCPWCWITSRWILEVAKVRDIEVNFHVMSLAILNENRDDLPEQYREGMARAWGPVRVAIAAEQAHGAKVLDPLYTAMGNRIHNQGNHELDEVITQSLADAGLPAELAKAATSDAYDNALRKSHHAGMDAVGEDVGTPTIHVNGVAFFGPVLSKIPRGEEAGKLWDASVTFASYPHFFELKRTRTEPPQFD

Regarding `CC(=O)N[C@@H](CSSC[C@H](NC(C)=O)C(=O)N[C@H]1[C@@H](O[C@@H]2[C@H](O)[C@H](O)[C@@H](O)[C@H](O)[C@H]2O)O[C@H](CO)[C@@H](O)[C@@H]1O)C(=O)N[C@H]1[C@@H](O[C@@H]2[C@H](O)[C@H](O)[C@@H](O)[C@H](O)[C@H]2O)O[C@H](CO)[C@@H](O)[C@@H]1O` [mycothione], the melting temperature shift result was “MSSM also caused a significant shift in the melting temperature”.
